Our source for the Activity values is ChEMBL document CHEMBL1127905, “Design and synthesis of a prototype model antagonist of tachykinin NK-2 receptor” (Bioorg Med Chem Lett, 1994).

The target of this assay is T1, Substance-K receptor (Homo sapiens) (UniProt P21452).
T1 sequence (whole entry): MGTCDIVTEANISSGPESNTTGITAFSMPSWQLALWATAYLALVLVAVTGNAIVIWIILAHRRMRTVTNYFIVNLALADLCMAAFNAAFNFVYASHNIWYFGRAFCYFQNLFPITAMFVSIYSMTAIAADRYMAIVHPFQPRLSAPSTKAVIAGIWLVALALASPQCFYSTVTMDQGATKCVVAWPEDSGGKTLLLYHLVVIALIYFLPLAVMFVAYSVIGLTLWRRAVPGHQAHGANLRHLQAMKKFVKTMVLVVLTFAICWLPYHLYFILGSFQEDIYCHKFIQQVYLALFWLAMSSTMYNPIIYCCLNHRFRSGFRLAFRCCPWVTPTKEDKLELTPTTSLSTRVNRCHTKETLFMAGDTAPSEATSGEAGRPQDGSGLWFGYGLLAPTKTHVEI
Kind of assay: Compound was evaluated for binding affinity to human recombinant Tachykinin receptor 2.

In the case of `O=C(Cc1c[nH]c2ccccc12)N[C@@H]1C(=O)N2[C@H](CC[C@H]2C(=O)NCc2ccccc2)C[C@H]1Cc1ccccc1`, the Activity turned out to be 3 µM.
